Test systems include OVCAR-5; COLO 205; IGROV-1; K562; HCT-15; OVCAR-3; SF-295; A549; NCI-H23; EKVX; SK-MEL-5; MDA-N; PC-3; LOX IMVI; ACHN; OVCAR-8; NCI-H522; SF-539; HCC 2998; SNB-75.
Experiment in all cases: DTP human tumour cell line panel, 48 h

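Tested at 5 concentrations; 48 h exposure; 96-well plates; endpoints linearly interpolated, else capped at highest concentration. GI50 is the concentration that inhibits growth by half.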 The source made the active and inactive calls. Cut-off read from the data, not from the text of the source: active = GI50 up to about 1.1 µM and inactive = higher. Where a SMILES comes first, the peptide text is derived from it. The star is where a group is joined. Boc = CC(C)(C)OC(=O)*

For `Cc1cccc(N2C(=O)C3c4[nH]c5ccccc5c4C4CCC(C(C)(C)C)CC4C3C2=O)c1` (stereo not given), the GI50 was 16.8 µM (inactive) with OVCAR-5; 11.9 µM (inactive) with COLO 205; 4.13 µM (inactive) with IGROV-1; 5.89 µM (inactive) with K562; 29.4 µM in the test on HCT-15; 14 µM (inactive) in the test on OVCAR-3. The GI50 was 9.29 µM (inactive) with SF-295; 10.6 µM (inactive) with A549; 16 µM (inactive) in the test with NCI-H23; 14.4 µM (inactive) in the test with EKVX; 15.1 µM (inactive) in the test on SK-MEL-5; 15.3 µM (inactive) in the test with MDA-N. In addition, the GI50 in the test on PC-3 was 12.4 µM (inactive); in the test on LOX IMVI, 3.32 µM (inactive); with ACHN, 4.95 µM (inactive); in the test with OVCAR-8, 3.5 µM (inactive); in the test with NCI-H522 it was 11.1 µM (inactive).
Take `CCOC(=O)c1cn(-c2ccc(Cl)cc2)c(=O)n2c1nc1ccccc12`: the GI50 in the test with OVCAR-5, with COLO 205, in the test with SF-539, with IGROV-1, in the test on K562 and with HCC 2998 was > 100 µM (inactive) in each case. Also, the GI50 in the test on HCT-15 is over 100 µM; in the test on OVCAR-3, > 100 µM (inactive); in the test with SF-295 it was > 100 µM (inactive); in the test with A549 it was > 100 µM (inactive); in the test on NCI-H23, > 100 µM (inactive); in the test with EKVX, > 100 µM (inactive). In addition, the GI50 in the test with SK-MEL-5, in the test with SNB-75, in the test on PC-3, in the test on LOX IMVI, in the test on ACHN and with OVCAR-8 was > 100 µM (inactive) throughout.
On to `O=C(O)C1=CN(c2ccncc2)C(c2ccco2)=CC1c1ccccc1[N+](=O)[O-]` (stereo not given), for which the GI50 with OVCAR-5 is 7.13 µM (inactive); in the test on COLO 205, 16.6 µM (inactive); in the test with SF-539, 3.11 µM (inactive); in the test with IGROV-1, 2 µM (inactive); with K562, 2.58 µM (inactive); in the test with HCC 2998 it was 1.82 µM (inactive). Further, the GI50 with HCT-15 was 2.05 µM; in the test on OVCAR-3, 7 µM (inactive); in the test with SF-295, 12.8 µM (inactive); in the test with A549, 15.6 µM (inactive); in the test with NCI-H23 it was 14.5 µM (inactive); in the test with EKVX it was 6.58 µM (inactive). For the same molecule, the GI50 was 6.65 µM (inactive) in the test on SK-MEL-5; 7.36 µM (inactive) with SNB-75; 13.9 µM (inactive) with PC-3; 1.97 µM (inactive) in the test with LOX IMVI; 2.1 µM (inactive) in the test with ACHN; 17.3 µM (inactive) in the test on OVCAR-8. The GI50 in the test on NCI-H522 was 3.22 µM (inactive).
On to `COc1ccc(C2=Nn3c(nnc(Cc4ccc(Cl)cc4)c3=O)SC2)cc1`, for which the GI50 was > 100 µM (inactive) with OVCAR-5; 50.8 µM (inactive) with COLO 205; 37.8 µM (inactive) in the test with SF-539; 51.1 µM (inactive) in the test on IGROV-1; 24.3 µM (inactive) with K562; 55.1 µM (inactive) with HCC 2998. Also, the GI50 was 29 µM in the test with HCT-15; 28.2 µM (inactive) in the test on OVCAR-3; 34.3 µM (inactive) with SF-295; 51.3 µM (inactive) in the test on A549; 35.4 µM (inactive) with NCI-H23; 52.2 µM (inactive) in the test on EKVX. Also, the GI50 in the test on SK-MEL-5 was 75.3 µM (inactive); in the test on PC-3, 42.9 µM (inactive); in the test on LOX IMVI it was 34.9 µM (inactive); in the test with ACHN, 64.7 µM (inactive); in the test on OVCAR-8, 93.1 µM (inactive); in the test with NCI-H522, 42.4 µM (inactive).
In the case of `CN(NC1=NCCO1)c1ccc2ccccc2c1`, the GI50 in the test with OVCAR-5 was 80 µM (inactive); with COLO 205, 41.1 µM (inactive); with SF-539, 23.6 µM (inactive); with IGROV-1, 39.7 µM (inactive); with K562, 28.3 µM (inactive); in the test with HCC 2998 it was 38.8 µM (inactive). The GI50 with HCT-15 was 49.4 µM; in the test with OVCAR-3, 23.6 µM (inactive); in the test on SF-295, > 100 µM (inactive); in the test on A549 it was 60.3 µM (inactive); in the test on NCI-H23, 32.1 µM (inactive); in the test on EKVX, 39.5 µM (inactive). Also, the GI50 in the test with SK-MEL-5 is 29.2 µM (inactive); in the test with SNB-75, 17.5 µM (inactive); in the test on PC-3 it was 40.3 µM (inactive); in the test with LOX IMVI it was 37.4 µM (inactive); with ACHN, 62.8 µM (inactive); in the test on OVCAR-8 it was 47.3 µM (inactive). Moreover, the GI50 in the test with NCI-H522 was 29.9 µM (inactive).
Turning to `CC(C)(C)OC(=O)NCC(=O)NCC(=O)NCC(=O)NCC(=O)O` (Boc-GGGG-OH), the GI50 in the test with OVCAR-5, in the test on COLO 205, in the test with SF-539, with IGROV-1, in the test on K562 and in the test on HCC 2998 was > 100 µM (inactive) throughout. The GI50 in the test with HCT-15 was over 100 µM; with OVCAR-3, > 100 µM (inactive); with SF-295 it was > 100 µM (inactive); with A549 it was > 100 µM (inactive); in the test on NCI-H23 it was > 100 µM (inactive); in the test on EKVX it was > 100 µM (inactive). The GI50 in the test with SK-MEL-5, with PC-3, with LOX IMVI, with ACHN, with OVCAR-8 and with NCI-H522 was > 100 µM (inactive) each time.
Regarding `COC(=O)C(Cc1ccccc1)NC(=O)C(CCC(=O)OCc1ccccc1)NC(=O)OC(C)(C)C` (stereo not given), the GI50 is > 100 µM (inactive) with OVCAR-5; > 100 µM (inactive) with COLO 205; > 100 µM (inactive) in the test on SF-539; > 100 µM (inactive) in the test on IGROV-1; 26.9 µM (inactive) in the test on K562; 31 µM (inactive) in the test with HCC 2998. For the same molecule, the GI50 is 85.5 µM in the test with HCT-15; 50.2 µM (inactive) in the test with OVCAR-3; > 100 µM (inactive) in the test on SF-295; > 100 µM (inactive) in the test on A549; > 100 µM (inactive) with NCI-H23; > 100 µM (inactive) in the test with EKVX. For the same molecule, the GI50 with SK-MEL-5 was > 100 µM (inactive); in the test on SNB-75, > 100 µM (inactive); in the test with PC-3 it was 81.7 µM (inactive); with LOX IMVI it was 30.3 µM (inactive); in the test with ACHN it was 68.9 µM (inactive); with OVCAR-8 it was > 100 µM (inactive). Also, in the test with NCI-H522, the GI50 was 30.4 µM (inactive).
As for `CCN(CC)C(=S)SS(=O)(=O)c1ccc(Cl)cc1`, the GI50 with OVCAR-5 was 44 µM (inactive); in the test with COLO 205 it was 26.5 µM (inactive); in the test with SF-539 it was 21.6 µM (inactive); with K562, 14.5 µM (inactive); in the test with HCC 2998, > 100 µM (inactive); with HCT-15, 31.3 µM. In addition, the GI50 in the test on OVCAR-3 is 31.7 µM (inactive); in the test with SF-295 it was 38.7 µM (inactive); in the test with A549, 0.484 µM (active); in the test with NCI-H23, 38.5 µM (inactive); in the test with EKVX, > 100 µM (inactive); in the test on SK-MEL-5, 9.04 µM (inactive). The GI50 with MDA-N was 36.1 µM (inactive); in the test on LOX IMVI, 15.4 µM (inactive); in the test on ACHN, 33.2 µM (inactive); in the test with OVCAR-8, 16.9 µM (inactive); with NCI-H522 it was 0.0319 µM (active).

These data come from ChEMBL document CHEMBL1201862, “PubChem BioAssay data set” (2004).
